Source: patent US20190365675A1, “COMPOSITIONS FOR THE PREVENTION AND/OR TREATMENT OF ALCOHOL USE DISORDERS” (SERVICIO ANDALUZ DE SALUD, priority 2016, published 2019)

Experiments:
HMGB1 = HMGB1 levels (ELISA) and nuclear/cytoplasmic ratio (Western blot) in frontal cortex after ethanol intoxication; format: in vivo, Wistar rats
Procedure: The animals were treated with intragastric (i.g.) ethanol 3 times a day using an i.g. cannula (16G needle, Fisher Scientific, Waltham, Mass., USA), following a protocol based on a slightly modified standard 4-day alcohol intoxication pattern (Bernier et al., 2002a, b) (FIG. 1A). The ethanol doses were administered every 8 h for a total time of 4 days. The rats treated with ethanol received an initial loading dose of 5 g/kg of ethanol in a 30% solution (w/v) and then a maximum maintenance dose of 3 g/kg, which were determined based on blood ethanol levels (BEL). This repeated standard alcohol intoxication paradigm kept BEL intoxication relatively constant in a range of sedation/ataxia (190 to 430 mg/dl, Table 3), according to the 6-point alcohol intoxication behavior scale (Majchrowicz, 1975). […] The autoradiograph was quantified by densitometry (NIH ImageJ® software, National Biosciences, Lincoln, Nebr. USA) and expressed as optical density (OD). […] The levels of soluble HMGB1, TNF-α, IL-1β and MCP-1 were determined by means of a commercially available enzyme-linked immunosorbent assay kit (ELISA) (Elabscience Biotechnology Co., Ltd., China, for HMGB-1; RayBiotech®, GA, USA, for TNF-α, IL-1β, and MCP-1). The nuclear/cytosol HMGB1 fraction was determined by means of Western blot analysis.

LPS = experiment: Plasma LPS levels (intestinal permeability to endotoxins); format: in vivo, Wistar rats; conditions: animals pretreated with OEA and receiving ethanol; ethanol alone about 80%; does not differ from control or ethanol group
Procedure: The animals were treated with intragastric (i.g.) ethanol 3 times a day using an i.g. cannula (16G needle, Fisher Scientific, Waltham, Mass., USA), following a protocol based on a slightly modified standard 4-day alcohol intoxication pattern (Bernier et al., 2002a, b) (FIG. 1A). The ethanol doses were administered every 8 h for a total time of 4 days. The rats treated with ethanol received an initial loading dose of 5 g/kg of ethanol in a 30% solution (w/v) and then a maximum maintenance dose of 3 g/kg, which were determined based on blood ethanol levels (BEL). This repeated standard alcohol intoxication paradigm kept BEL intoxication relatively constant in a range of sedation/ataxia (190 to 430 mg/dl, Table 3), according to the 6-point alcohol intoxication behavior scale (Majchrowicz, 1975). The mean dose of ethanol/rat/day (days 1-4) was 7.06 g/kg, similar to other studies (Obernier et al., 2002a, b). […]
Corticosterone and LPS were measured in plasma by means of the use of radioimmunoassay (R.I.A.) kits available on the market (Coat-A-Count®, Siemens, La., USA) or colorimetric enzymatic reaction (HyCult Biotech, Uden, Netherlands), respectively.

For `CCCCCCCC/C=C\CCCCCCCC(=O)NCCO` [OEA, oleoylethanolamide], which “Ethanol intoxication-induced increase in HMGB1 (ELISA)” value (HMGB1; 2-4 h after last ethanol, OEA 5 mg/kg i.p. (initial 10 mg/kg) 10 min before each ethanol) is on record?
The value was “prevented”.

And the “HMGB1 n/c ratio (nuclear/cytoplasmic, Western blot)” value (HMGB1; OEA + ethanol, ethanol alone 1.21, control 1.3)?
Its value is 1.48.

And the “Plasma LPS levels, increase with respect to the control” value (LPS)?
Its value is 44%.
